Results as given in patent US5324722A, “2-, 3-, 5-, 8-, 10- and/or 11-substituted dibenzoxazepine compounds, pharmaceutical compositions and methods for treating pain” (G. D. Searle & Co., priority 1993, dated 1994).

How the values were obtained:
[1] = molecular target: T1, prostaglandin E2-induced contractions of segments of guinea pig ileum (Cavia porcellus, UniProt A0A286XHJ6); assay: Prostaglandin (PGE) Antagonism Assay in guinea pig ileum; assay type: cell-based; details: pA2 against prostaglandin E2-induced contractions; initial concentration 3 micromolar; estimated or by Schild plot
T1 construct: Segments of ileum about 2 cm long were then cut and mounted in a 10 mL tissue bath; from tissue; host or cells: guinea pig ileum segments
T1 sequence (A0A286XHJ6 1-405): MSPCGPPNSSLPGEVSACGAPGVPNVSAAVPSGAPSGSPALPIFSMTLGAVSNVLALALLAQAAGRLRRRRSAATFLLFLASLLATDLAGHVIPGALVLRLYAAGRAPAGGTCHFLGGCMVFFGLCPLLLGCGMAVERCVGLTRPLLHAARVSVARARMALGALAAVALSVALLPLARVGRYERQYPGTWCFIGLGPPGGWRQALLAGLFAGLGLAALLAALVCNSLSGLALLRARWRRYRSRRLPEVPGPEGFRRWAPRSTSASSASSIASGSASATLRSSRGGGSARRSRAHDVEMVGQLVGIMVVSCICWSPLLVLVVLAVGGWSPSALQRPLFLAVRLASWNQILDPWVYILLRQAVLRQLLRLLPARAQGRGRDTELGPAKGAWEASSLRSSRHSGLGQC
Description: In order to determine the effectiveness of several of the compounds of the present invention ("test compounds") as prostaglandin E2 antagonists,a prostaglandin antagonism assay was conducted, as described below, to determine the ability of these compounds to inhibit prostaglandin E2 -induced contractions of segments of guinea pig ileum.
Male albino guinea pigs weighing 200 to 500 grams were sacrificed by cervical dislocation. The ilea were then quickly removed from the guinea pigs and placed in a modified Tyrode solution, a solution which is known to those skilled in the art, containing one-half of the usual amount of magnesium ions.
Segments of ileum about 2 cm long were then cut and mounted in a 10 mL tissue bath containing the modified Tyrode solution. The solution was maintained at 37° C. and aerated with a gaseous mixture of 95% oxygen and 5% carbon dioxide. Data for a control prostaglandin E2 dose response curve plotting concentration of prostaglandin E2 versus the intensity of contractions, detected isotonically, was then obtained by experimentally adjusting the dose of the prostaglandin E2 being injected into the tissue bath, in a manner known by those of skill in the art.
Solutions or suspensions containing an initial concentration (3 micromolar) of a test compound in modified Tyrode solution ("test solutions/suspensions") were then separately substituted for the control bath solution. Each test solution/suspension was then kept in constant contact with the ileum tissue, except for brief periods to drain the bath in preparation for rinsing with fresh test solution/suspension. A second prostaglandin E2 dose response curve was then generated for prostaglandin E2 in the presence of a test compound.
A dose ratio of EC50 doses was then calculated from the results of each test in a manner known by those of skill in the art. A test compound was determined to be "active" if the initial concentration used yielded at least a two-fold shift (dose ratio greater than or equal to 2) in the dose response curve for 10 prostaglandin E2.

[2] = tested on: mice; assay: Writhing Assay (PBQ-induced writhing); assay type: in vivo; details: for WRITHING ASSAY Number Out of Ten I.G. / WRITHING ASSAY Number Out of Ten S.C.: number of mice out of ten with analgesia, 30 minutes before PBQ i.p., male albino mice; for WRITHING ASSAY Number Out of Ten I.G.: 30 mg per kilogram intragastric; for WRITHING ASSAY Number Out of Ten S.C.: 30 mg per kilogram subcutaneous
Description: The Writhing Assay is one of the most widely-used experimental procedures for measuring the analgesic activity of different narcotic and nonnarcotic analgesic agents, and involves the continuous, chemically-induced pain of visceral origin to an animal, such as a mouse orrat. [Gyires et al., Arch. int. Pharmacodyn, 267, 131-140 (1984); C. Vander Wende et al., Fed. Proc., 15, 494 (1956); Koster et al., Fed. Proc., 18, 412 (1959); and Witken et al., J. Pharmacol. exp. Ther., 133, 400-408 (1961).] Chemicals which may be used to induce this pain include phenylbenzoquinone (PBQ) and acetic acid. As a result of the chemical irritation to the animal, a characteristic stretching and writhing of the animal (dorsiflexion of the animal's back, extension of its hindlimbs and the strong contraction of its abdominal musculature) will generally occur. […] Drugs which reduce the number of writhes of the animal appear to restore the normal nociceptive threshold of the animal.
Charles River male albino mice, weighing 20 to 30 grams were used in this assay.
Thirty minutes after subcutaneous or intragastric administration to ten mice of 30 mg per kilogram of body weight of a compound of the present invention ("test compound"), […] per 10 g of body weight of a 0.025% w/v solution of PBQ was injected intraperitoneally into each mouse. Ten mice which were given saline in place of a test compound of the invention were used as a control group.
Five minutes later, each mouse was individually placed into a glass beaker for observation, and the number of writhes occurring during the following ten-minute period was counted.
A test compound was considered to have produced analgesia in a mouse if, in accordance with the conditions set forth above, and under the test criteria employed for this assay, after the administration of 30 mg per kilogram of body weight of a compound of the present invention to the mouse, the number of writhes elicited by a mouse injected with PBQ was equal to, or less than, one-half the median number of writhes recorded for the saline-treated control group of mice that day, as described by Taber in "Predictive Value of Analgesic Assays in Mice and Rats," Advances in BiochemicaI Psychopharmacology, 8, 191 (1974).
The results for the particular compounds of the present invention analyzed in this assay, and discussed in the examples identified below which correspond thereto, are presented in Table 1 hereinbelow under the heading "WRITHING ASSAY." The numbers in fractions indicate the number of mice out of ten in which a test compound produced analgesia. […] (b) Prostaglandin (PGE) Antagonism Assay

| SMILES | PGE ANTAGONISM IN GUINEA PIG ILEUM (pA2 value) [1] | WRITHING ASSAY Number Out of Ten I.G. [2] | WRITHING ASSAY Number Out of Ten S.C. [2] | relative analgesic potency in the Writhing Assay ([2]; among the compounds of the invention tested, 30 mg per kilogram, mice) | Kb [1] |
| --- | --- | --- | --- | --- | --- |
| CCCC1c2ccccc2Oc2ccc(Cl)cc2N1C(=O)NNC(=O)CCS(=O)(=O)CC (stereo not drawn) [Example 21, 8-chloro-11-propyldibenz[b,f][1,4]oxazepine-10(11H)-carboxylic acid. 2-[3-(ethylsulfonyl)-1-oxopropyl]hydrazide] | 5.94 | 3/10 | 1/10 | – | – |
| CCS(=O)(=O)CCC(=O)NNC(=O)C1c2ccccc2Oc2ccc(Cl)cc2N1C(=O)OC(C)(C)C (stereo not drawn) [Example 7, 8-chlorodibenz[b,f][1,4]oxazepine-10,11(11H)-dicarboxylic acid, 10-(1,1-dimethylethyl) ester, 11-[2-[3-(ethylsulfonyl)-1-oxopropyl]hydrazide]] | – | 5/10 | 3/10 | most potent | – |
| CCC1c2ccccc2Oc2ccc(Cl)cc2N1C(=O)NNC(=O)CCS(=O)(=O)CC (stereo not drawn) [Example 17, 8-chloro-11-ethyldibenz[b,f][1,4]oxazepine-10(11H)-carboxylic acid, 2-[3-(ethylsulfonyl)-1-oxopropyl]hydrazide] | – | 1/10 | 2/10 | – | 1290 nM |
| CCS(=O)(=O)CCC(=O)NNC(=O)N1c2cc(Cl)ccc2Oc2ccccc2C1C (stereo not drawn) [Example 13, 8-chloro-11-methyldibenz[b,f][1,4]oxazepine-10(11H)-carboxylic acid, 2-[3-(ethylsulfonyl)-1-oxopropyl]hydrazide] | 6.03 | 5/10 | 5/10 | – | – |
